Results taken from publication PMC10285260, “Processive kinetics in the three-step lanosterol 14α-demethylation reaction catalyzed by human cytochrome P450 51A1” (The Journal of Biological Chemistry, 2023).
“And” between values parts separate entries of the source, which are not always exact repeats. Equal entries are not always repeated.

Tests used:
human P450 51A1 [1] = assay: Kinetic modeling (KinTek Explorer) of the single-turnover time course; details: for k^+ of sterol binding to P450 51A1 (kon) used for fitting: all kon set at this value; for k^- of oxidation step of the P450-sterol complex: irreversible, set to zero; for k^- of sterol binding to P450 51A1 (koff) used for fitting / k^+ of oxidation step of the P450-sterol complex: optimized model; for k^+ of oxidation step of the P450-sterol complex: label = sterol oxidized in the step
Source text: The initial koff rate constants used in fitting were the koff rates measured in the stopped-flow trap experiments (Fig. 9). All three oxidation reactions are irreversible, and thus k-2, k-4, and k-6 were set to zero.
Data were imported into KinTek Explorer software (v. 11.01, KinTek, https://kintekcorp.com/software) ([63], [64]) as txt files and processed using an Apple computer (operating system 11.6.2).

[2] = system: rat liver microsomal systems; parameters: method as in PMID 3514778; details: rat liver microsomes fortified with cyanide, 2 h; cited from earlier work
human P450 51A1 [3] = target: T1, human P450 51A1 (Homo sapiens, UniProt Q16850); assay: Steady-state LC-UV assay of sterol oxidation to dihydro FF-MAS by reconstituted P450 51A1; details: for kcat relative to dihydrolanosterol / kcat/Km relative to dihydrolanosterol: oxidation to dihydro FF-MAS
T1 sequence (Q16850 1-509): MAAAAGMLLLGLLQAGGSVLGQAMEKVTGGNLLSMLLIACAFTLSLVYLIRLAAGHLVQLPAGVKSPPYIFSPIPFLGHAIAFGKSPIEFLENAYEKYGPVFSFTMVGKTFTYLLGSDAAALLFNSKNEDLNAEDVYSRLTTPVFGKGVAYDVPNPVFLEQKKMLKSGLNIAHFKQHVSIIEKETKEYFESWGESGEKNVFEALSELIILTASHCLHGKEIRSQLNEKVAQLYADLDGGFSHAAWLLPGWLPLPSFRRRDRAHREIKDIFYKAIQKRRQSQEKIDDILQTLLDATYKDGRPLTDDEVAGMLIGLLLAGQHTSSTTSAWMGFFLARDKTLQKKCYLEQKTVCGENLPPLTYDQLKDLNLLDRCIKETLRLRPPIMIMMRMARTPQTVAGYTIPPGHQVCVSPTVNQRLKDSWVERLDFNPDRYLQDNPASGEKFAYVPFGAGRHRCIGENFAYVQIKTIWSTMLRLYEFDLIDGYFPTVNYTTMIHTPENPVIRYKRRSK
Procedure: Steady-state incubations (500 μl) were generally done at 37 °C with 0.025 μM P450 51A1, 0.10 μM NADPH-P450 reductase, 100 μM L-α-dilauroyl-sn-glycero-3-phosphocholine, 50 mM potassium phosphate buffer (pH 7.4), 10% (v/v) glycerol, and an indicated concentration of each sterol (in 45% (w/v) HPCD). […] The sterols (stored at 4 °C) were prepared as described above and were heated to 37 °C and sonicated prior to use. Sterol working stocks were diluted in HPCD to ensure a constant concentration of cyclodextrin in each reaction. […] Accordingly, all reactions were done with this concentration of glycerol.
Reactions were preincubated (5 min, 37 °C) prior to initiation with an NADPH-regenerating system (0.5 mM NADP^+, 10 mM glucose 6-phosphate, and 2 μg ml^−1 glucose 6-phosphate dehydrogenase) ([60]) and were stopped after 5 min with the addition of CH2Cl2 (5 ml). (The NADPH-generating system, in addition to lower cost than NADPH, drives the reaction to avoid inhibition of the reductase by accumulated NADP^+). For the 14α-aldehyde, the times of preincubation and reaction were reduced (to 2 min and 1 min, respectively). The quenched mixture was centrifuged (2000g, 5 min), and 4 ml of the bottom (organic) layer was transferred to vials and brought to dryness under a stream of N2 gas. The dried residue was resuspended in CH3OH (100 μl) and was analyzed by UPLC using a 2.1 mm × 100 mm (1.7 μm) octadecylsilane (C18) column (held at 25 °C) and a Waters Acquity UPLC system. Samples (4 °C) were injected (10 μl) at a flow rate of 0.20 ml min^−1 using an isocratic mobile phase of CH3CN (only). The product (FF-MAS) was detected using a Waters Acquity photodiode array detector set at 250 nm (Fig. 4B). Data were processed using the MassLynx software (http://www.waters.com/waters/en_US/MassLynx-Mass-Spectrometry-Software-/nav.htm?cid=513164&locale=en_US), and the amount of product formed was calculated by comparison to a twelve-point dihydro FF-MAS standard curve. Determination of kcat and Km for each reaction was carried out by fitting the data to a Michaelis–Menten hyperbola, which was done using GraphPad Prism.
Incubations were run in triplicate, and the mean values (±SD) were calculated and plotted. The linear regression fits include the Prism error estimates for internal fitting (SE).

[4] = Estimation of Kd for HPCD-dihydrolanosterol complex (OD450 light scattering); type: physicochemical; details: pH 7.4, 2% C2H5OH, 23 °C, 16 h; two assays

CC(C)CCCC(C)[C@H]1CC[C@@]2(CO)C3=C(CC[C@]12C)[C@@]1(C)CC[C@H](O)C(C)(C)C1CC3 (stereo partly drawn) [14α-CH2OH dihydrolanosterol, 24,25-dihydro-14α-CH2OH lanosterol]
k^+ of sterol binding to P450 51A1 (kon) used for fitting (human P450 51A1 [1]): 2e+06 M⁻¹ s⁻¹
k^- of oxidation step of the P450-sterol complex (human P450 51A1 [1]): 0
k^- of sterol binding to P450 51A1 (koff) used for fitting (human P450 51A1 [1]): 0.040 s⁻¹
k^+ of oxidation step of the P450-sterol complex (human P450 51A1 [1]): 3.5 s⁻¹
accumulation, yield [2]: ~3%
kcat relative to dihydrolanosterol (human P450 51A1 [3]): ~1.5 fold
kcat/Km relative to dihydrolanosterol (human P450 51A1 [3]): ~1.5 fold
Rate of FF-MAS formation (replicates) (human P450 51A1 [3]; substrate 0.25 µM, listed as 14-CH2OH dihydrolanosterol): 1.4 min-1 (2×) and 1.5 min-1
Rate of FF-MAS formation (replicates) (human P450 51A1 [3]; substrate 0.50 µM, listed as 14-CH2OH dihydrolanosterol): 3.1 min-1 and 3.0 min-1 (2×)
Rate of FF-MAS formation (replicates) (human P450 51A1 [3]; substrate 0.75 µM, listed as 14-CH2OH dihydrolanosterol): 4.7 min⁻¹ and 4.5 min⁻¹ and 3.9 min⁻¹
Rate of FF-MAS formation (replicates) (human P450 51A1 [3]; substrate 1.00 µM, listed as 14-CH2OH dihydrolanosterol): 6.5 min-1 (2×) and 7.1 min-1
Rate of FF-MAS formation (replicates) (human P450 51A1 [3]; substrate 1.50 µM, listed as 14-CH2OH dihydrolanosterol): 8.9 min⁻¹ and 8.6 min⁻¹ and 11.1 min⁻¹
Rate of FF-MAS formation (replicates) (human P450 51A1 [3]; substrate 2.50 µM, listed as 14-CH2OH dihydrolanosterol): 16.2 min⁻¹ and 16.4 min⁻¹ and 16.5 min⁻¹
Rate of FF-MAS formation (replicates) (human P450 51A1 [3]; substrate 5.00 µM, listed as 14-CH2OH dihydrolanosterol): 25.1 min⁻¹ and 20.7 min⁻¹ and 25.9 min⁻¹
Rate of FF-MAS formation (replicates) (human P450 51A1 [3]; substrate 7.50 µM, listed as 14-CH2OH dihydrolanosterol): 25.1 min⁻¹ and 26.3 min⁻¹ and 27.2 min⁻¹
Rate of FF-MAS formation (replicates) (human P450 51A1 [3]; substrate 10.00 µM, listed as 14-CH2OH dihydrolanosterol): 26.4 min⁻¹ and 27.4 min⁻¹ and 26.6 min⁻¹
Rate of FF-MAS formation (replicates) (human P450 51A1 [3]; substrate 15.00 µM, listed as 14-CH2OH dihydrolanosterol): 29.2 min⁻¹ and 33.0 min⁻¹ and 31.0 min⁻¹

CC(C)CCCC(C)[C@H]1CC[C@@]2(C=O)C3=C(CC[C@]12C)[C@@]1(C)CC[C@H](O)C(C)(C)C1CC3 (stereo partly drawn) [14α-CHO dihydrolanosterol, 24,25-dihydro-14α-formyl lanosterol]
k^+ of sterol binding to P450 51A1 (kon) used for fitting (human P450 51A1 [1]): 2e+06 M⁻¹ s⁻¹
k^- of oxidation step of the P450-sterol complex (human P450 51A1 [1]): 0
k^+ of oxidation step of the P450-sterol complex (human P450 51A1 [1]): 2.5 s⁻¹
accumulation, yield [2]: ~3%
kcat relative to dihydrolanosterol (human P450 51A1 [3]): about 3 fold
kcat/Km relative to dihydrolanosterol (human P450 51A1 [3]): about 3 fold
Rate of FF-MAS formation (replicates) (human P450 51A1 [3]; substrate 0.25 µM, listed as 14-CHO dihydrolanosterol): 2.969 min⁻¹ and 3.528 min⁻¹ and 3.126 min⁻¹
Rate of FF-MAS formation (replicates) (human P450 51A1 [3]; substrate 0.50 µM, listed as 14-CHO dihydrolanosterol): 7.815 min⁻¹ and 6.139 min⁻¹ and 6.658 min⁻¹
Rate of FF-MAS formation (replicates) (human P450 51A1 [3]; substrate 0.75 µM, listed as 14-CHO dihydrolanosterol): 11.25 min⁻¹ and 9.099 min⁻¹ and 10.0823 min⁻¹
Rate of FF-MAS formation (replicates) (human P450 51A1 [3]; substrate 1.00 µM, listed as 14-CHO dihydrolanosterol): 13.4 min⁻¹ and 13.67 min⁻¹ and 13.3 min⁻¹
Rate of FF-MAS formation (replicates) (human P450 51A1 [3]; substrate 1.50 µM, listed as 14-CHO dihydrolanosterol): 18.85 min⁻¹ and 19.74 min⁻¹ and 19.25 min⁻¹
Rate of FF-MAS formation (replicates) (human P450 51A1 [3]; substrate 2.50 µM, listed as 14-CHO dihydrolanosterol): 28.46 min⁻¹ and 30.67 min⁻¹ and 32.21 min⁻¹
Rate of FF-MAS formation (replicates) (human P450 51A1 [3]; substrate 5.00 µM, listed as 14-CHO dihydrolanosterol): 52.7446 min⁻¹ and 50.4 min⁻¹ and 54.73 min⁻¹
Rate of FF-MAS formation (replicates) (human P450 51A1 [3]; substrate 7.50 µM, listed as 14-CHO dihydrolanosterol): 65.76 min⁻¹ and 62.41 min⁻¹ and 66.11 min⁻¹
Rate of FF-MAS formation (replicates) (human P450 51A1 [3]; substrate 10.00 µM, listed as 14-CHO dihydrolanosterol): 70.12 min⁻¹ and 63.34 min⁻¹ and 67.78 min⁻¹
Rate of FF-MAS formation (replicates) (human P450 51A1 [3]; substrate 15.00 µM, listed as 14-CHO dihydrolanosterol): 72.18 min⁻¹ and 76.97 min⁻¹ and 69.96 min⁻¹

CC(C)CCCC(C)[C@H]1CC[C@@]2(C)C3=C(CC[C@]12C)[C@@]1(C)CC[C@H](O)C(C)(C)C1CC3 (stereo partly shown) [dihydrolanosterol, 24,25-dihydrolanosterol]
k^+ of sterol binding to P450 51A1 (kon) used for fitting (human P450 51A1 [1]): 2e+06 M⁻¹ s⁻¹
k^- of oxidation step of the P450-sterol complex (human P450 51A1 [1]): 0
k^- of sterol binding to P450 51A1 (koff) used for fitting (human P450 51A1 [1]): 0.075 s⁻¹
k^+ of oxidation step of the P450-sterol complex (human P450 51A1 [1]): 7.5 s⁻¹
Kd [4]: 6.4 mM and 6.8 mM
kcat (human P450 51A1 [3]; oxidation to dihydro FF-MAS (epi-dihydro FF-MAS from epi substrate), 37 °C): 0.50 ± 0.03 s⁻¹ and 0.50 s⁻¹
Rate of FF-MAS formation (replicates) (human P450 51A1 [3]; substrate 0.25 µM): 0.9 min-1 and 1.0 min-1 (2×)
Rate of FF-MAS formation (replicates) (human P450 51A1 [3]; substrate 0.50 µM): 2.4 min-1 (2×) and 2.1 min-1
Rate of FF-MAS formation (replicates) (human P450 51A1 [3]; substrate 0.75 µM): 3.4 min⁻¹ and 3.0 min⁻¹ and 3.7 min⁻¹
Rate of FF-MAS formation (replicates) (human P450 51A1 [3]; substrate 1.00 µM): 4.1 min⁻¹ and 4.3 min⁻¹ and 3.4 min⁻¹
Rate of FF-MAS formation (replicates) (human P450 51A1 [3]; substrate 1.50 µM): 4.8 min⁻¹ and 6.3 min⁻¹ and 5.8 min⁻¹
Rate of FF-MAS formation (replicates) (human P450 51A1 [3]; substrate 2.50 µM): 12.8 min⁻¹ and 12.1 min⁻¹ and 9.4 min⁻¹
Rate of FF-MAS formation (replicates) (human P450 51A1 [3]; substrate 5.00 µM): 16.4 min-1 and 15.6 min-1 (2×)
Rate of FF-MAS formation (replicates) (human P450 51A1 [3]; substrate 7.50 µM): 21.8 min⁻¹ and 17.6 min⁻¹ and 18.3 min⁻¹
Rate of FF-MAS formation (replicates) (human P450 51A1 [3]; substrate 10.00 µM): 20.3 min⁻¹ and 21.5 min⁻¹ and 22.5 min⁻¹
Rate of FF-MAS formation (replicates) (human P450 51A1 [3]; substrate 15.00 µM): 19.1 min⁻¹ and 23.3 min⁻¹ and 21.3 min⁻¹
